From patent publication US10221182B2, “3,3-difluoro-piperidine derivatives as NR2B NMDA receptor antagonists” (Rugen Holdings (Cayman) Limited, priority 2015, dated 2019)
Where two headings read alike, the source gives them in different places.

What was measured:
human NR1/NR2B = human NR1/NR2B (Homo sapiens (Human), UniProt Q05586+Q13224); experiment: NR2B antagonist activity, Fluo-4 calcium influx assay in HEK293 cells; format: cell-based; details: glutamate 100 μM, glycine 50 μM
Experimental: (§1) Activation of the NR2A or NR2B subtype of NMDA receptor with glutamate as an agonist and glycine co-agonist on these cells results in calcium influx, which can be monitored with fluorescent indicator Fluo-4.
(§2) For experiments, the cells were seeded onto poly-D-lysine-coated 96-well black plates with clear bottom (Corning) at a density of ˜50,000 cells/well. After overnight culture, the growth medium was removed from the wells and the cells were incubated at 37° C. for 60 min in Hanks buffer containing 4 μM fluo-4-AM (Invitrogen) and 0.1% bovine serum albumin (BSA). After dye-loading, the cells were washed three times with Hanks buffer and incubated for 10 min at room temperature with various concentrations of test compounds prepared in Hanks buffer with 0.1% BSA. The cell plates were placed onto FDSS μCell fluorescence reader (Hamamatsu). After 20 sec reading of background fluorescence, agonist glutamate at final 100 μM and co-agonist glycine at final 50 μM were added to the cells to activate the receptor, and the resulting fluorescence changes were recorded and quantified. Based on the changes in fluorescence intensity, the pharmacological effect of test compounds were analyzed and the IC50 values derived from a non-linear least squares fitting of the concentration-dependent response to a standard logistic equation using Prism (Graphpad, Inc): Amplitude=Max Amplitude/(1+([…])^n).

hERG channel = hERG channel (Homo sapiens (Human), UniProt Q12809); experiment: hERG channel inhibition, whole cell patch clamp in HEK293 cells; details: for hERG @ 10 μM: inhibition at 10 μM
human NR1/NR2A [1] = molecular target: human NR1/NR2A (Homo sapiens (Human), UniProt Q05586+Q12879); experiment: NR2A antagonist activity, Fluo-4 calcium influx assay in HEK293 cells; format: cell-based
human NR1/NR2A (Homo sapiens (Human), UniProt Q05586+Q12879), sequence (Q12879 23-1464, other chains not shown): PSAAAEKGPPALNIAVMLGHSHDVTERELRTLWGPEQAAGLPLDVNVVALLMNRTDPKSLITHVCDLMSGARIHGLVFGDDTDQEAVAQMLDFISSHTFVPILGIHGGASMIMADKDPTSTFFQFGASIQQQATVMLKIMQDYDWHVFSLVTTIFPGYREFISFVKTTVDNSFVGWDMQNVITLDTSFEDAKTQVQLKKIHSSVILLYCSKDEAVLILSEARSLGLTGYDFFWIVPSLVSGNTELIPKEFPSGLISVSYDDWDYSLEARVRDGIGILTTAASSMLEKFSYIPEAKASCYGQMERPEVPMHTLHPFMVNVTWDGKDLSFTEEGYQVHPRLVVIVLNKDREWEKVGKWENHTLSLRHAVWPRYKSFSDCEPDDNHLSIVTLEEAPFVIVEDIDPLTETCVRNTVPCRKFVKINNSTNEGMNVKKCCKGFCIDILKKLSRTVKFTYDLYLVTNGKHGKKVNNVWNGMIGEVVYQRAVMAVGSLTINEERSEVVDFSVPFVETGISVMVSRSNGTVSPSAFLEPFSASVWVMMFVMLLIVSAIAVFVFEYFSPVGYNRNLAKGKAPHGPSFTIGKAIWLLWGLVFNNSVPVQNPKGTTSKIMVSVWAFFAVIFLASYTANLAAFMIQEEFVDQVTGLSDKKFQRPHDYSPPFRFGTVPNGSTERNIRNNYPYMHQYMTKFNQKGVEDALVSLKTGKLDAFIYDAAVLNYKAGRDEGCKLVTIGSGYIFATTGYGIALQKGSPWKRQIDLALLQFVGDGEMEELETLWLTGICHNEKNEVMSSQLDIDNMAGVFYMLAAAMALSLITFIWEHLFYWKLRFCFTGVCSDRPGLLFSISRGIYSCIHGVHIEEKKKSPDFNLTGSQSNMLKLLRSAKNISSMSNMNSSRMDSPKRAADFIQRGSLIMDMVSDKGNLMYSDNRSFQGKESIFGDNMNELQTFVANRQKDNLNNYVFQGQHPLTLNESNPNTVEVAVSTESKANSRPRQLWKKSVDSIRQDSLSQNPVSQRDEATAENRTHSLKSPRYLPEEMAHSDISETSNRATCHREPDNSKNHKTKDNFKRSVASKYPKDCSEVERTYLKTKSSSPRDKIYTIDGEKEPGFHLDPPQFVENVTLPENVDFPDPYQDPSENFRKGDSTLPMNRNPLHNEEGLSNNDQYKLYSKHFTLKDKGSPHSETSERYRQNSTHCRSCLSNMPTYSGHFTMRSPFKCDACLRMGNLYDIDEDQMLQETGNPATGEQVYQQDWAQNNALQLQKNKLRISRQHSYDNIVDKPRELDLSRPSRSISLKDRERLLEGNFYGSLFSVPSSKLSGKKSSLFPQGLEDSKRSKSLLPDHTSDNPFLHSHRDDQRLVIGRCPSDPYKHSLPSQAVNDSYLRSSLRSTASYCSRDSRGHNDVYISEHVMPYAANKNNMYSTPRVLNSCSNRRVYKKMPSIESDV
Experimental: as §1, §2

CYP2D6 = CYP2D6 (Homo sapiens (Human), UniProt P10635); experiment: CYP P450 enzyme inhibition in pooled human liver microsome; details: dextromethorphan 5 μM; for CYP2D6 @ 10 μM: inhibition at 10 μM, pooled HLM; for IC50: CYP2D6 IC50, pooled HLM
CYP2D6, sequence (P10635 whole entry): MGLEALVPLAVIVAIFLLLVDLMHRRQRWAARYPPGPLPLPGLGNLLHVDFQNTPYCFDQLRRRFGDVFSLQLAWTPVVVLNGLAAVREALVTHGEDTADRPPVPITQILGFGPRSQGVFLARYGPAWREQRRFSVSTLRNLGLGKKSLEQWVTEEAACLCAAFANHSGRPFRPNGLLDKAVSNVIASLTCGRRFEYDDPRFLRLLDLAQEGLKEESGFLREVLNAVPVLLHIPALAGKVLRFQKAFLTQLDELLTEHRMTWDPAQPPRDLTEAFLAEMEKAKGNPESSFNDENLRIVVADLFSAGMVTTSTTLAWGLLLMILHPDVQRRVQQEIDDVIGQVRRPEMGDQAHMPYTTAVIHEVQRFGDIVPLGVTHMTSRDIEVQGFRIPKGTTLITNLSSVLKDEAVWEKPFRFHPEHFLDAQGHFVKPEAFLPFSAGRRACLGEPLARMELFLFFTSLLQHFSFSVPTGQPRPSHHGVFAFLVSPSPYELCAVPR
Experimental: Those CYP isoforms and their corresponding probe substrates are as follows: CYP1A2 (phenacetin, 30 μM), CYP2C9 (tolutamide, 100 μM), CYP2C19 (S-mephenytoin, 40 μM), CYP2D6 (dextromethorphan, 5 μM) and CYP3A4 (midazolam, 1 μM). All probe substrates were used at concentrations near or below their Kms. For experiment, a reaction mixture of test compound at 10 uM or in serial dilution, CYP probe substrate described above and 0.2 mg/mL pooled HLM in phosphate buffer, pH 7.4 in a final volume of 200 μL was pre-incubated at 37° C. for 10 minutes in triplicate. The reaction was initiated by addition of NADPH at final concentration of 1 mM. The reaction was terminated after 10 minutes (CYP1A2, CYP2D6 and CYP3A4) or 30 minutes (CYP2C9 and CYP2C19) by addition of 100 μL ice-cold acetonitrile with internal standard (IS). The samples were then centrifuged at 13,000 rpm and the supernatants were injected to LC-MS/MS (Agilent Technologies) to quantify the concentration of the specific metabolites of the probe substrates formed by individual CYP450 isoforms. The inhibition ratio is calculated as: (Mt−M0)/Mwater×100% in which Mt and M0 represent the concentrations of the specific probe substrate metabolite, which was formed by individual CYP450 isoform, at the beginning and end of the reaction in the presence of test compound; while Mwater represents the concentration of the specific metabolite at the end of the reaction in the absence of test compound. Test compound concentration-dependent response data experiments performed in triplicate.

human NR1/NR2A [2] = molecular target: human NR1/NR2A (Homo sapiens (Human), UniProt Q12879); experiment: NR2A antagonist activity, Fluo-4 calcium influx assay in HEK293 cells; format: cell-based
human NR1/NR2A (Homo sapiens (Human), UniProt Q12879), sequence (Q12879 23-1464, other chains not shown): as the sequence (Q12879 23-1464, other chains not shown) above
Experimental: as §1, §2

[3] = hNR2B IC50, HEK293 cells expressing NR1/NR2B
[4] = HEK293 cells expressing NR1/NR2B, read-out: hNR2B IC50
[5] = HEK293 cells expressing NR1/NR2A, glutamate 100 μM, glycine 50 μM, read-out: hNR2A IC50
[6] = read-out: hNR2A IC50; HEK293 cells expressing NR1/NR2A; glutamate 100 μM, glycine 50 μM

human NR1/NR2B, sequence (Q13224 27-1484, other chains not shown): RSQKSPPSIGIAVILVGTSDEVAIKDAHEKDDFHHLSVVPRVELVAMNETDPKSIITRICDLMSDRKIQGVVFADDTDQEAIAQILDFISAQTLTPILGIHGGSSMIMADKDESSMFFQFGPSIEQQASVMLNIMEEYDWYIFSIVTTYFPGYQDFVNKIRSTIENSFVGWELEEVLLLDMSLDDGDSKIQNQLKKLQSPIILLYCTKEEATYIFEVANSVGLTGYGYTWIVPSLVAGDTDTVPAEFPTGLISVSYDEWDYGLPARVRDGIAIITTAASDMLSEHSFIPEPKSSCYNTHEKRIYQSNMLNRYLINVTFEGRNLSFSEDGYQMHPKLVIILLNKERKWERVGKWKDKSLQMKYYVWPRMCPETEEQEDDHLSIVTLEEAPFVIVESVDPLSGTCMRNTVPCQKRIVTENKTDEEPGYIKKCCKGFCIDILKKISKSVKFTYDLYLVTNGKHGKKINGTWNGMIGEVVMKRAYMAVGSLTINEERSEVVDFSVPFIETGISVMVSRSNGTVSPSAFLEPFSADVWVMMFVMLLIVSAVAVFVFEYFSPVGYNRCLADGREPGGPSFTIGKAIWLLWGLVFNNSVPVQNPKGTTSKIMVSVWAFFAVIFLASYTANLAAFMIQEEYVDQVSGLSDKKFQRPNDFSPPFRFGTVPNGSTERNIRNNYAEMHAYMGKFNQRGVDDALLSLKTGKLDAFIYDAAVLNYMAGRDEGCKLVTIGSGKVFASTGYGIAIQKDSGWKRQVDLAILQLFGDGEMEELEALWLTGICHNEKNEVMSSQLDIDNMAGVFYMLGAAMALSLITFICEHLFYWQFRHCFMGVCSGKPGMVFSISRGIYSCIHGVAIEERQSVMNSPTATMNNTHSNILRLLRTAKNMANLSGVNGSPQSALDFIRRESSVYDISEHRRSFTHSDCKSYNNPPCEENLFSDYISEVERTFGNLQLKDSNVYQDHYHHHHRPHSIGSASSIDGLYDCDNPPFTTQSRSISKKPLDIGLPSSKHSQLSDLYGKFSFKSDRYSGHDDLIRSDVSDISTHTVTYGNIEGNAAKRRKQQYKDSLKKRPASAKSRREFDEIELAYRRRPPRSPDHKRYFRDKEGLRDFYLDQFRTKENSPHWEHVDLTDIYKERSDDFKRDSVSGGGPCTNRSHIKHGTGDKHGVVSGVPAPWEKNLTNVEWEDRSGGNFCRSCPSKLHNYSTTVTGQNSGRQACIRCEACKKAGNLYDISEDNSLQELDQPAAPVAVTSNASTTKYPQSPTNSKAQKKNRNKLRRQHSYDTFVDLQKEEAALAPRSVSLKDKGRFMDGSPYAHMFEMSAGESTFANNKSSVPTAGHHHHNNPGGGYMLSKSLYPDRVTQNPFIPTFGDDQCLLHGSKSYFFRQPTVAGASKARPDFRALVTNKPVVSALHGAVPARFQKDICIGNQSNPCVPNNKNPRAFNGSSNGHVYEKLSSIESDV

Compound	IC50 (human NR1/NR2B; [3]) [µM]	IC50 (human NR1/NR2A [1]) [µM]	CYP2D6 @ 10 μM (CYP2D6) [%]	hERG @ 10 μM (hERG channel) [%]	also measured
FC1(F)CN(CCc2ccccc2)CCC1Nc1ncnc2[nH]ncc12 (racemic) [C-1.1, (±)-N-(3,3-difluoro-1-phenethylpiperidin-4-yl)-1H-pyrazolo[3,4-d]pyrimidin-4-amine]	0.0988	> 10			IC50 (hERG channel): 71 µM
Fc1ccc(CCN2CCC(Nc3ncnc4[nH]ncc34)C(F)(F)C2)cc1 (racemic) [C-1.2, (±)-N-(3,3-difluoro-1-(4-fluorophenethyl)piperidin-4-yl)-1H-pyrazolo[3,4-d]-pyrimidin-4-amine]	0.0683	> 10	45.1		IC50 (hERG channel): 16.3 µM
Cc1n[nH]c2ncnc(NC3CCN(CCc4ccc(C(F)(F)F)cc4)CC3(F)F)c12 (racemic) [C-1.34, (±)-N-(3,3-difluoro-1-(4-(trifluoromethyl)phenethyl)piperidin-4-yl)-3-methyl-1H-pyrazolo[3,4-d]pyrimidin-4-amine]		> 10		68	
Fc1ccc(F)c(CCN2CCC(Nc3ncnc4[nH]ncc34)C(F)(F)C2)c1 (racemic) [C-1.35, (±)-N-(1-(2,5-difluorophenethyl)-3,3-difluoropiperidin-4-yl)-1H-pyrazolo[3,4-d]-pyrimidin-4-amine]	0.329	> 10		17	
FC(F)(F)c1cccc(CCN2CCC(Nc3ncnc4[nH]ncc34)C(F)(F)C2)c1 (racemic) [C-1.36]		> 10	27.9	56	
FC(F)(F)c1ccc(CCN2CCC(Nc3ncnc4[nH]ccc34)C(F)(F)C2)cc1 (racemic) [C-2.5, (±)-N-(3,3-difluoro-1-(4-(trifluoromethyl)phenethyl)piperidin-4-yl)-7H-pyrrolo-[2,3-d]pyrimidin-4-amine]				60	IC50 (human NR1/NR2B; [4]): 0.105 µM; IC50 (human NR1/NR2A [1]; [5]): > 10 µM
Cc1ccc(CCN2CCC(Nc3ncnc4[nH]ncc34)C(F)(F)C2)cn1 (racemic) [C-3.4, (±)-N-(3,3-difluoro-1-(2-(6-methylpyridin-3-yl)ethyl)piperidin-4-yl)-1H-pyrazolo[3,4-d]pyrimidin-4-amine]	2.27	> 10		18	
FC(F)(F)c1ccc(CCN2CCC(Nc3ncnc4[nH]ncc34)C(F)(F)C2)cn1 (racemic) [C-3.5, (±)-N-(3,3-difluoro-1-(2-(6-(trifluoromethyl)pyridin-3-yl)ethyl)piperidin-4-yl)-1H-pyrazolo[3,4-d]pyrimidin-4-amine]				23	IC50 (human NR1/NR2B; [4]): 0.822 µM; IC50 (human NR1/NR2A [1]; [5]): > 10 µM
FC(F)(F)c1ccc(CCN2CCC(Nc3ncnc4[nH]ccc34)C(F)(F)C2)cn1 (racemic) [C-4.5, (±)-N-(3,3-difluoro-1-(2-(6-(trifluoromethyl)pyridin-3-yl)ethyl)piperidin-4-yl)-7H-pyrrolo[2,3-d]pyrimidin-4-amine]				24	IC50 (human NR1/NR2B; [4]): 1.74 µM; IC50 (human NR1/NR2A [1]; [5]): > 10 µM
FC1(F)CN(CCc2ccc(Cl)cc2)CCC1Nc1ncnc2[nH]ncc12 (single isomer, unassigned) [E1-1.3, (R*)-N-(1-(4-chlorophenethyl)-3,3-difluoropiperidin-4-yl)-1H-pyrazolo[3,4-d]-pyrimidin-4-amine]	0.025	> 10	21.5	58	
Cc1ccc(CCN2CCC(Nc3ncnc4[nH]ncc34)C(F)(F)C2)cc1 (single isomer, unassigned) [E1-1.4, (R*)-N-(3,3-difluoro-1-(4-methylphenethyl)piperidin-4-yl)-1H-pyrazolo[3,4-d]-pyrimidin-4-amine]	0.0185	> 10			
FC(F)c1ccc(CCN2CCC(Nc3ncnc4[nH]ncc34)C(F)(F)C2)cc1 (single isomer, unassigned) [E1-1.6, (R*)-N-(1-(4-(difluoromethyl)phenethyl)-3,3-difluoropiperidin-4-yl)-1H-pyrazolo-[3,4-d]pyrimidin-4-amine]		> 10	24.4	63	IC50 (hERG channel; hERG IC50): 3.5 µM
FCc1ccc(CCN2CCC(Nc3ncnc4[nH]ncc34)C(F)(F)C2)cc1 (single isomer, unassigned) [E1-1.7, (R*)-N-(3,3-difluoro-1-(4-(fluoromethyl)phenethyl)piperidin-4-yl)-1H-pyrazolo[3,4-d]-pyrimidin-4-amine]	0.0224	> 10	23.2	36	
FC(F)(F)Oc1ccc(CCN2CCC(Nc3ncnc4[nH]ncc34)C(F)(F)C2)cc1 (single isomer, unassigned) [E1-1.11, (R*)-N-(3,3-difluoro-1-(4-(trifluoromethoxy)phenethyl)piperidin-4-yl)-1H-pyrazolo[3,4-d]pyrimidin-4-amine]		> 10			
FC(F)Oc1ccc(CCN2CCC(Nc3ncnc4[nH]ncc34)C(F)(F)C2)cc1 (single isomer, unassigned) [E1-1.12, (R*)-N-(1-(4-(difluoromethoxy)phenethyl)-3,3-difluoropiperidin-4-yl)-1H-pyrazolo[3,4-d]pyrimidin-4-amine]	0.0838	> 10		79	
Fc1cc(Cl)ccc1CCN1CCC(Nc2ncnc3[nH]ncc23)C(F)(F)C1 (single isomer, unassigned) [E1-1.16, (R*)-N-(1-(4-chloro-2-fluorophenethyl)-3,3-difluoropiperidin-4-yl)-1H-pyrazolo-[3,4-d]pyrimidin-4-amine]	0.0279	> 10	23.2	47	
FC1(F)CN(CCc2ccc(Cl)cc2)CCC1Nc1ncnc2[nH]ncc12 (single isomer, unassigned) [E2-1.3, (S*)-N-(1-(4-chlorophenethyl)-3,3-difluoropiperidin-4-yl)-1H-pyrazolo[3,4-d]pyrimidin-4-amine]	0.0317		27.6	64	IC50 (human NR1/NR2A [2]; [6]): > 10 µM
Cc1ccc(CCN2CCC(Nc3ncnc4[nH]ncc34)C(F)(F)C2)cc1 (single isomer, unassigned) [E2-1.4, (S*)-N-(3,3-difluoro-1-(4-methylphenethyl)piperidin-4-yl)-1H-pyrazolo[3,4-d]-pyrimidin-4-amine]	0.0219				IC50 (human NR1/NR2A [2]; [6]): > 10 µM
FC(F)c1ccc(CCN2CCC(Nc3ncnc4[nH]ncc34)C(F)(F)C2)cc1 (single isomer, unassigned) [E2-1.6, (S*)-N-(1-(4-(difluoromethyl)phenethyl)-3,3-difluoropiperidin-4-yl)-1H-pyrazolo-[3,4-d]-pyrimidin-4-amine]			37.1	70	IC50 (human NR1/NR2A [2]; [6]): > 10 µM
FCc1ccc(CCN2CCC(Nc3ncnc4[nH]ncc34)C(F)(F)C2)cc1 (single isomer, unassigned) [E2-1.7, (S*)-N-(3,3-difluoro-1-(4-(fluoromethyl)phenethyl)piperidin-4-yl)-1H-pyrazolo-[3,4-d]-pyrimidin-4-amine]	0.0381			49	IC50 (human NR1/NR2A [2]; [6]): > 10 µM
Fc1cc(Cl)ccc1CCN1CCC(Nc2ncnc3[nH]ncc23)C(F)(F)C1 (single isomer, unassigned) [E2-1.16, (S*)-N-(1-(4-chloro-2-fluorophenethyl)-3,3-difluoropiperidin-4-yl)-1H-pyrazolo-[3,4-d]pyrimidin-4-amine]	0.0619			64	IC50 (human NR1/NR2A [2]; [6]): > 10 µM
FC(F)(F)c1ccc(CCN2CCC(Nc3ncnc4[nH]ncc34)C(F)(F)C2)cc1 (single isomer, unassigned; (+)) [E1-1.5, (+)-(R*)-N-(3,3-difluoro-1-(4-(trifluoromethyl)phenethyl)piperidin-4-yl)-1H-pyrazolo[3,4-d]pyrimidin-4-amine]		> 10	27.6		IC50 (hERG channel; hERG IC50): 9.8 µM; IC50 (CYP2D6): 34.1 µM
FC(F)(F)c1ccc(CCN2CCC(Nc3ncnc4[nH]ncc34)C(F)(F)C2)cc1 (single isomer, unassigned; (-)) [E2-1.5, (−)-(S*)-N-(3,3-difluoro-1-(4-(trifluoromethyl)phenethyl)piperidin-4-yl)-1H-pyrazolo[3,4-d]pyrimidin-4-amine]			37.9		IC50 (hERG channel; hERG IC50): 7.6 µM; IC50 (CYP2D6): 15.2 µM; IC50 (human NR1/NR2A [2]; [6]): > 10 µM
FC(F)(F)c1ccc(C(F)(F)CN2CCC(Nc3ncnc4[nH]ncc34)CC2)cc1 [LX-1, reference compound]			93		
(±)-N-(1-(3,4-difluorophenethyl)-3,3-difluoropiperidin-4-yl)-1H-pyrazolo-[3,4-d]-pyrimidin-4-amine [C-1.15]				37	IC50 (human NR1/NR2B; [4]): 0.0789 µM; IC50 (human NR1/NR2A [2]; HEK293 cells expressing NR1/NR2A; glutamate 100 μM, glycine 50 μM; read-out: hNR2A IC50): > 10 µM
